From patent US20210128537A1, “T-TYPE CALCIUM CHANNEL MODULATORS AND METHODS OF USE THEREOF” (Praxis Precision Medicines, inc., priority 2016, published 2021)

Assays:
[1] = test system: Naïve wistar rats; experiment: Drug tolerability study, seven-day osmotic pump; assay type: in vivo, rat
Description: Pumps were filled with either Z944 to deliver a daily dose of 60 mg/kg, levetiracetam to deliver a daily dose of 200 mg/kg or vehicle. For the drug tolerability study, osmotic pumps continuously either Z944, levetiracetam or vehicle for 7 days and for the post-SE study osmotic pumps delivered continuously the different treatments for 28 days.
The neurological side effects of the prolonged administration of Z944 and levetiracetam were assessed over one-week. Naïve wistar rats aged 11 weeks were implanted with a seven-day osmotic pump with Z944 (60 mg/kg/day, n=6), levetiracetam (200 mg/kg/day, n=5) and vehicle (n=6). The animals were evaluated twice per day, morning and afternoon, for side effects from the day of pump implantation to 8 days after.

[2] = target: hCaV3.2 (Homo sapiens, UniProt O95180); experiment: Inactivated channel state FLIPR assay, concentration-dependent inhibition of hCaV3.2; assay type: cell-based; details: logistic function fit
hCaV3.2, sequence (O95180 whole entry): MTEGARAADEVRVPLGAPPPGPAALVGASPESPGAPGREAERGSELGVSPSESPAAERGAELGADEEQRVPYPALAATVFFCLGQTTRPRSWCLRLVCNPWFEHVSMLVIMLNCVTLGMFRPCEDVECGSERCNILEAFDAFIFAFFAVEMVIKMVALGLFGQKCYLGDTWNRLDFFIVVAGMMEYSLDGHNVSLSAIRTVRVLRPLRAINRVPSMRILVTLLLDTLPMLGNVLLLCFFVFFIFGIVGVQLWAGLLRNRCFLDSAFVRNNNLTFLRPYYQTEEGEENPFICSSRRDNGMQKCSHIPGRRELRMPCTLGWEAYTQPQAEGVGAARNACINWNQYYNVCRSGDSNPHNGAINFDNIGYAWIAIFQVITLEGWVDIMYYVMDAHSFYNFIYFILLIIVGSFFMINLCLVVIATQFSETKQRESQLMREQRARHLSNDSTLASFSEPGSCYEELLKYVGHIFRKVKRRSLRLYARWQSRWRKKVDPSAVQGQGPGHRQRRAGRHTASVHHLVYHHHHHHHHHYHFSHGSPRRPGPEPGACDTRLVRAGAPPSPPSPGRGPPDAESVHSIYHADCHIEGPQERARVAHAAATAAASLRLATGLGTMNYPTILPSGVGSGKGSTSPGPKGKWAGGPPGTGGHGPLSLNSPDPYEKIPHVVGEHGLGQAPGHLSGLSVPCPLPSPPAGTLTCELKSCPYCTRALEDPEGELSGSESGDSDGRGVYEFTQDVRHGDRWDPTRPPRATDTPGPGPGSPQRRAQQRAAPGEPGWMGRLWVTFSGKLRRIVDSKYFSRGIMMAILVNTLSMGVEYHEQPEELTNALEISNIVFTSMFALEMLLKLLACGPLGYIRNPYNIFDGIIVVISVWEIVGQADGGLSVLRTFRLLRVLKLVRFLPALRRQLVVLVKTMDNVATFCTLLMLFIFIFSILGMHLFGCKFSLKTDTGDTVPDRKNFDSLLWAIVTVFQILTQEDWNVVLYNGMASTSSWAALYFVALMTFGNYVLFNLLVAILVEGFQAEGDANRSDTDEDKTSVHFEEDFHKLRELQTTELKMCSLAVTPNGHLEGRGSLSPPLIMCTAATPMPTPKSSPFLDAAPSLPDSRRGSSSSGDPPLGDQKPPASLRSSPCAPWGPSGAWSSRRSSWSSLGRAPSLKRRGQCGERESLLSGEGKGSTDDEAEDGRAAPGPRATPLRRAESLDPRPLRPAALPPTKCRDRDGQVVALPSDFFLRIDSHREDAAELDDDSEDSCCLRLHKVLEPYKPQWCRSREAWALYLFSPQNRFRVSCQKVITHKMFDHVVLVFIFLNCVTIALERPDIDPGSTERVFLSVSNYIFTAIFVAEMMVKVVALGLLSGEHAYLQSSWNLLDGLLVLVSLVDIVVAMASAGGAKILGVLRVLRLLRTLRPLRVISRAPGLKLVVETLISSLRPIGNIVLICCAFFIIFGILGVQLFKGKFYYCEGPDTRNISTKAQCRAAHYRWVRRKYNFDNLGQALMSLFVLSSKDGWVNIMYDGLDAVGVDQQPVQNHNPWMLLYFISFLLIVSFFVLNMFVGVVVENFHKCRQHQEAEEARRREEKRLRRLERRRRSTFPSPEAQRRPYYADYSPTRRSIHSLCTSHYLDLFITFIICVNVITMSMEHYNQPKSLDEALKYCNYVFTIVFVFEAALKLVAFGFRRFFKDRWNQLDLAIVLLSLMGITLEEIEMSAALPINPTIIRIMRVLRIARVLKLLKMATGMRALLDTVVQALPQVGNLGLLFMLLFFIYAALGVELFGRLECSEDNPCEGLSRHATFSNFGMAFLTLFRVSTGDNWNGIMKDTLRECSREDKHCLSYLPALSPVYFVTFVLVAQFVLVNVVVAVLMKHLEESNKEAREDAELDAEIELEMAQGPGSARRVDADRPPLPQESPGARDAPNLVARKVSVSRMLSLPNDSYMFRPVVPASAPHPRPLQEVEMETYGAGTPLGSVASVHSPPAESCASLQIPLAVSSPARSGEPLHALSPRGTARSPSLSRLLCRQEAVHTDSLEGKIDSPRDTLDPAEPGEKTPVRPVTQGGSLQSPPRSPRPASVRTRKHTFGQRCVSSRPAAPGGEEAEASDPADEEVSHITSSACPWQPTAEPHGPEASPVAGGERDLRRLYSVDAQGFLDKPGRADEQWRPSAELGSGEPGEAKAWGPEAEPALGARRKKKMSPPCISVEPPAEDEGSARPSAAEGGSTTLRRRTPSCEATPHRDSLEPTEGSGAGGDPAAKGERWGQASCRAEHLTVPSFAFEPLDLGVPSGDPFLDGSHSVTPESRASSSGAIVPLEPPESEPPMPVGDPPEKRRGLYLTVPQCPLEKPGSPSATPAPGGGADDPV

[3] = test system: T-type calcium channels (CaV3.1, CaV3.2, CaV3.3) mRNA; experiment: Quantitative PCR of T-type Ca2+ channel expression in the hippocampus of post-SE rats; assay type: in vivo, rat; details: 9 weeks after treatment ended
Description: RNA was extracted using the RNeasy Mini Kit (QIAGEN), DNA elimination columns were used to remove any genomic DNA contamination in accordance with the manufacturer's protocol. RNA concentration and purity was determined using spectrophotometric readings with the NanoDrop 3000 spectrophotometer (NanoDrop Technologies). 1 μg RNA was reverse transcribed to cDNA using the Omniscript RT Kit (QIAGEN) following the manufacturer's protocol. T-type Ca^2+ channel expression was assessed using quantitative polymerase chain reaction (qPCR). Each 10 μl reaction volume consisted in 25 ng of cDNA, 5 μl of TaqMan Universal PCR Master Mix 2× and custom designed TaqMan using catalogued 20× Taqman gene expression assays for CaV3.1 (Assay ID Rn00581051_m1, Applied Biosystems), CaV3.2 (Assay ID Rn01460348_m1, Applied Biosystems), CaV3.3 (Assay ID Rn01505208_m1, Applied Biosystems). Relative mRNA expression of the CaV3.1, CaV3.2 and CaV3.3 were compared to the geometric average of the mRNA levels of the housekeeping genes Rplp1 (Rn03467157_gH), Rpl13a (Rn00821946_g1) and Ywhaz (Assay ID: Rn00755072_m1). Analysis was performed using the ΔΔCT method. The average of the relative expression levels was compared between the different treatment groups.

CC(C)(C)NC(=O)CN1CCC(CNC(=O)c2cc(F)cc(Cl)c2)CC1 [Z944]
neurological side effects in comparison to vehicle ([1]; 60 mg/kg/day osmotic pump, day 2 to day 5): transient and minimal side effects
neurological side effects compared to levetiracetam treated animals ([1]; Z944 60 mg/kg/day vs levetiracetam 200 mg/kg/day, day 2 and 3, p<0.05): significantly reduced neurological side effects
slope of the concentration-inhibition curve [2]: 1.5
mRNA expression of T-type calcium channels in the hippocampus [3]: Reduced mRNA Expression
